According to publication PMC8213057, “Targeting ALK2: An Open Science Approach to Developing Therapeutics for the Treatment of Diffuse Intrinsic Pontine Glioma” (Journal of Medicinal Chemistry, 2020):

Assays:
AKT1 = AKT1 (Homo sapiens, UniProt P31749); details: 1 μM; Run 1, Run 2
ARAF = target: T1, ARAF (Homo sapiens, UniProt P10398); details: 1 μM; Run 1, Run 2
T1 sequence (P10398 1-606): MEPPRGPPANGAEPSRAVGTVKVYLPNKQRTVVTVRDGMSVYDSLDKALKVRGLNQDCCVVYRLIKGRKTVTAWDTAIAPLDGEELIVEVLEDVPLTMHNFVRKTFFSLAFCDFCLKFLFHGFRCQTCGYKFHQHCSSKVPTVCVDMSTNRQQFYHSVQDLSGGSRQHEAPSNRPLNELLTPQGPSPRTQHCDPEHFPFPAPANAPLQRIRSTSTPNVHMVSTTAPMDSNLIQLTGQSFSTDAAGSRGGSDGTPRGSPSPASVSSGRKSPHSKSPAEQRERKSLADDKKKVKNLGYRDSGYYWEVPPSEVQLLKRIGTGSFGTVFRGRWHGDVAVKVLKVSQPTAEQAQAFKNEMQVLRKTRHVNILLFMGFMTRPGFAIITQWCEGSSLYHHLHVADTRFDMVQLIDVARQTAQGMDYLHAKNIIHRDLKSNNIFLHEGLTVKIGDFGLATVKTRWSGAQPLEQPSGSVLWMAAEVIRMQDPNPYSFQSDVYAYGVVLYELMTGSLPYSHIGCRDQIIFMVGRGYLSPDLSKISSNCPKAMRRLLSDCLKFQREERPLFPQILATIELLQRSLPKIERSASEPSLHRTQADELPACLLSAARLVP

IGF1R = IGF1R (Homo sapiens, UniProt P08069); details: 1 μM; Run 1, Run 2
P38a/MAPK14 [1] = target: T2, P38a/MAPK14 (Homo sapiens, UniProt Q16539); details: 1 μM; Run 1, Run 2
RSK3 = RSK3 (Homo sapiens, UniProt Q15349); details: 1 μM; Run 1, Run 2
SBK1 = SBK1 (Homo sapiens, UniProt Q52WX2); details: 1 μM; Run 1, Run 2
ULK3 = target: T3, ULK3 (Homo sapiens, UniProt Q6PHR2); details: 1 μM; Run 1, Run 2
T3 sequence (Q6PHR2 1-472): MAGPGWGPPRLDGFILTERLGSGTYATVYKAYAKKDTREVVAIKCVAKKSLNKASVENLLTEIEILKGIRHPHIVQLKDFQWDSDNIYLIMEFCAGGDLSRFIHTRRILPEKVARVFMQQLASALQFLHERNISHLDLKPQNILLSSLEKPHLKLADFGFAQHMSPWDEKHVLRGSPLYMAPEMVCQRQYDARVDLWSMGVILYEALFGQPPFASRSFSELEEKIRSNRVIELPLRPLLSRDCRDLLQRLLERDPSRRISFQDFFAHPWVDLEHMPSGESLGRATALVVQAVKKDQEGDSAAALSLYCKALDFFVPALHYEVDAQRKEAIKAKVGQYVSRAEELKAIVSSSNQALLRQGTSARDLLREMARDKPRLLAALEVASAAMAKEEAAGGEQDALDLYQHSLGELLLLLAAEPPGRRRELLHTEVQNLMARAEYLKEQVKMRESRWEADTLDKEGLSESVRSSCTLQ

GRK3 = target: T4, GRK3 (Homo sapiens, UniProt P35626); test: biochemical; details: read-out: % enzyme activity, 1 μM; Run 1, Run 2
T4 sequence (P35626 1-688): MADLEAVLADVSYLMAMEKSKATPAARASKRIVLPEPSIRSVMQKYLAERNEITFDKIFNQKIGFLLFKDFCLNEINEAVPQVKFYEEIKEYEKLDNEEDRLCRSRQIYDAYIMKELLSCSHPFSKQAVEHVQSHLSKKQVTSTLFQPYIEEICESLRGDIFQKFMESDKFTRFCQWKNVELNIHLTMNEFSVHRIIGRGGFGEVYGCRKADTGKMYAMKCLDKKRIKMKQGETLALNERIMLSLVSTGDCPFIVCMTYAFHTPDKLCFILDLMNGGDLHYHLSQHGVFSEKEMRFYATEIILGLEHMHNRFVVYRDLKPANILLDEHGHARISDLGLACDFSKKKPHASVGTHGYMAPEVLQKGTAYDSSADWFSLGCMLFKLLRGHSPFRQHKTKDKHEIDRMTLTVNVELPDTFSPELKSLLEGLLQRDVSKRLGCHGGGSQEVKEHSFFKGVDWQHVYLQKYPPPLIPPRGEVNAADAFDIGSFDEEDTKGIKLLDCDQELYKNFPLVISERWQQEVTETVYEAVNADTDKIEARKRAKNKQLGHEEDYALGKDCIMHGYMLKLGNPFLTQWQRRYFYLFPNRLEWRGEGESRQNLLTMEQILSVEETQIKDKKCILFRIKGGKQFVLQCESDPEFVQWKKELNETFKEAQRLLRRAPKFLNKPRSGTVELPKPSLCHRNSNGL

LCK = LCK (Homo sapiens, UniProt P06239); test: biochemical; details: read-out: % enzyme activity, 1 μM; Run 1, Run 2
MST4 = MST4 (Homo sapiens, UniProt Q9P289); test: biochemical; details: read-out: % enzyme activity, 1 μM; Run 1, Run 2
P38a/MAPK14 [2] = target: T2, P38a/MAPK14; test: biochemical; details: read-out: % enzyme activity, 1 μM; Run 1, Run 2
ZAP70 = target: T5, ZAP70 (Homo sapiens, UniProt P43403); test: biochemical; details: read-out: % enzyme activity, 1 μM; Run 1, Run 2
T5 sequence (P43403 1-619): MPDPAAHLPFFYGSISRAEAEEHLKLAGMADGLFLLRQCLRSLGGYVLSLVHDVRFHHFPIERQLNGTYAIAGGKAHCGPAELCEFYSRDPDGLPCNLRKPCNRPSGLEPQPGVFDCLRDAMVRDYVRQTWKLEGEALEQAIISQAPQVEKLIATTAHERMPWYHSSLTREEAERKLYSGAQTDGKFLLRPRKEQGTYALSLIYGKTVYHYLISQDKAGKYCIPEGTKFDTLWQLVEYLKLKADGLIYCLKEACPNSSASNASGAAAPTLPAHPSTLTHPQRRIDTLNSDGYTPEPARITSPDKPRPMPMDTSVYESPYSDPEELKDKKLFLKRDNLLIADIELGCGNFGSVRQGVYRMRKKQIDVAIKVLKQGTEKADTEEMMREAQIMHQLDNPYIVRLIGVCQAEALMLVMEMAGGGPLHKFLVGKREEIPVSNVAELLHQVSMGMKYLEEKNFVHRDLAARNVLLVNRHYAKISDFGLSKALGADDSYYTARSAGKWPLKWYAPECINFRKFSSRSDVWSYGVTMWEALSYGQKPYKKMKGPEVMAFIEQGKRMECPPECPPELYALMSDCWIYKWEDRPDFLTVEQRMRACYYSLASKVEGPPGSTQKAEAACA

T2 sequence (Q16539 whole entry): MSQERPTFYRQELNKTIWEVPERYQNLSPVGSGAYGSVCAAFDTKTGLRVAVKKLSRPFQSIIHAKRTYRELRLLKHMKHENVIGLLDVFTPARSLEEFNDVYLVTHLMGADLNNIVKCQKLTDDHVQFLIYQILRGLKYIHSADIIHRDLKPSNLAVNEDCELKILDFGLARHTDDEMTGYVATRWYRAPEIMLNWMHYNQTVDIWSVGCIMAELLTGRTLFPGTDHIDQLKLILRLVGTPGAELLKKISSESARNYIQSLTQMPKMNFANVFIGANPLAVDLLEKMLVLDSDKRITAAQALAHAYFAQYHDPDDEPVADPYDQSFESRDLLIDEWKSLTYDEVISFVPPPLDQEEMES
Sequence of AKT1 (P31749 whole entry): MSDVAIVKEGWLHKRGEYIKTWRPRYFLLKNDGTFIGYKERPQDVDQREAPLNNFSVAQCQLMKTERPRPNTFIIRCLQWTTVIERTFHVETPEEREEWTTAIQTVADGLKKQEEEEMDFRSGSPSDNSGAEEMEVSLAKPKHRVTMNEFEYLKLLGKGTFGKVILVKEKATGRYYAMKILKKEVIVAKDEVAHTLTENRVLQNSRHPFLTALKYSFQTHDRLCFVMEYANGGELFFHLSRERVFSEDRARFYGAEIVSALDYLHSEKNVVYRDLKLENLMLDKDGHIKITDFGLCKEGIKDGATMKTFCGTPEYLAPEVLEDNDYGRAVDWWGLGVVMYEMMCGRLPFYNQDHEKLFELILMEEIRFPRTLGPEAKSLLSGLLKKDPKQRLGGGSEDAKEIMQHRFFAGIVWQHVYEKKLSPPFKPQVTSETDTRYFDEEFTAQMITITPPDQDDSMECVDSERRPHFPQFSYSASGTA
Sequence of IGF1R (P08069 31-1367): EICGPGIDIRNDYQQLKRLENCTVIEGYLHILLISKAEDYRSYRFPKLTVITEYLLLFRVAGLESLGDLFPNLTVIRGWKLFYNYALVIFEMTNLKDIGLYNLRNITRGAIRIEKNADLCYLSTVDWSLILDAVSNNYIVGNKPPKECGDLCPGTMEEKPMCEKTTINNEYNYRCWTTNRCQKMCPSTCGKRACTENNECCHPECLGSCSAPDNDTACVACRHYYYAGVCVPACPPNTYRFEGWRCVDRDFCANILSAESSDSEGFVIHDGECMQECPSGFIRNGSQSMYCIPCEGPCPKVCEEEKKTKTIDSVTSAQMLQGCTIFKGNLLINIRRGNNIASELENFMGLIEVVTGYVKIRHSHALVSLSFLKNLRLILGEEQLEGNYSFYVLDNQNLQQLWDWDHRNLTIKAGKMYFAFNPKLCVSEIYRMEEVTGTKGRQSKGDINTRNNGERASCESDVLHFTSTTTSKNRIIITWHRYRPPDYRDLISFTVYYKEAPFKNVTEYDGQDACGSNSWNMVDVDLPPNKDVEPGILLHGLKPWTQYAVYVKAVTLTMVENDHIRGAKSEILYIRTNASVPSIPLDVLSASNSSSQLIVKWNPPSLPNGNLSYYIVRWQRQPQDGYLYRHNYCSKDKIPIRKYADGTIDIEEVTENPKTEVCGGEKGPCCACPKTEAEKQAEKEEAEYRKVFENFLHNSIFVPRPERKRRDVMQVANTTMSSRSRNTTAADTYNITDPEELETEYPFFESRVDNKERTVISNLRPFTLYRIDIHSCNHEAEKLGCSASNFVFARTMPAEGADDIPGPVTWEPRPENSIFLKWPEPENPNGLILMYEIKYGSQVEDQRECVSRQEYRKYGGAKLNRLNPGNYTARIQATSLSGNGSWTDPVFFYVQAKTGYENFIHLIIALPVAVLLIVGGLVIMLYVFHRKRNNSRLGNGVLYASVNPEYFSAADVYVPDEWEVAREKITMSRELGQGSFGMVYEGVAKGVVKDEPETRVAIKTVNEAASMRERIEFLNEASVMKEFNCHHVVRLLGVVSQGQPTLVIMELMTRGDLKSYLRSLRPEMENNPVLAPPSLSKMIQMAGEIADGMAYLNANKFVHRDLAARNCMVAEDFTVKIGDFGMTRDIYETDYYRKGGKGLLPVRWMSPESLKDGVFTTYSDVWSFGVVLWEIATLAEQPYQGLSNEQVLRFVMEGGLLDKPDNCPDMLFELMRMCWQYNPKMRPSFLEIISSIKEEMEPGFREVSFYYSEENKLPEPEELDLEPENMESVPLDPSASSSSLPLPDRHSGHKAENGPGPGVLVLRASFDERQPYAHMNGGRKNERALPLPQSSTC
Sequence of MST4 (Q9P289 whole entry): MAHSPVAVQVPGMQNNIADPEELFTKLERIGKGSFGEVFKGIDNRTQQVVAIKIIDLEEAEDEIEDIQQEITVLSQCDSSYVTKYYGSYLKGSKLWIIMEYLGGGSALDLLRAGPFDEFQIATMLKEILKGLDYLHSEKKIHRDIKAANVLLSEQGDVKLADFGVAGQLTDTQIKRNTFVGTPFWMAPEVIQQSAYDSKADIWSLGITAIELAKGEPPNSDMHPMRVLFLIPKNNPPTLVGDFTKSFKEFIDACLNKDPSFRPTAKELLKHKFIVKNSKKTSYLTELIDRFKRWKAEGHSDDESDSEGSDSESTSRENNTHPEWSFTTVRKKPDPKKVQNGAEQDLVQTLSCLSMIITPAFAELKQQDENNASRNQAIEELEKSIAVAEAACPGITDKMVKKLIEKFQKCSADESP
Sequence of LCK (P06239 whole entry): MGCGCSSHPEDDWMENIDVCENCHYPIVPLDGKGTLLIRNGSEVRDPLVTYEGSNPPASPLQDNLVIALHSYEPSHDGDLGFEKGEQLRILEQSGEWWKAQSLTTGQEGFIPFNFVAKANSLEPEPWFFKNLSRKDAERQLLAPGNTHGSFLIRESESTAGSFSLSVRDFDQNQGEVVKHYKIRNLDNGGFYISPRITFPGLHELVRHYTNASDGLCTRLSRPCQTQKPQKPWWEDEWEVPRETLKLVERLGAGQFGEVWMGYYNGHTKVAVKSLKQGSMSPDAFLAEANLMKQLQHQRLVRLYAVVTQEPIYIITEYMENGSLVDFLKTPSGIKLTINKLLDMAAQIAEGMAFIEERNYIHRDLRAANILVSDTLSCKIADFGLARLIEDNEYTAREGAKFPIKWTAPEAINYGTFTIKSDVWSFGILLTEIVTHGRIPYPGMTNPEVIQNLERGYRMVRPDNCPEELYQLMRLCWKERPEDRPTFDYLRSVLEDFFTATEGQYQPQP
Sequence of RSK3 (Q15349 whole entry): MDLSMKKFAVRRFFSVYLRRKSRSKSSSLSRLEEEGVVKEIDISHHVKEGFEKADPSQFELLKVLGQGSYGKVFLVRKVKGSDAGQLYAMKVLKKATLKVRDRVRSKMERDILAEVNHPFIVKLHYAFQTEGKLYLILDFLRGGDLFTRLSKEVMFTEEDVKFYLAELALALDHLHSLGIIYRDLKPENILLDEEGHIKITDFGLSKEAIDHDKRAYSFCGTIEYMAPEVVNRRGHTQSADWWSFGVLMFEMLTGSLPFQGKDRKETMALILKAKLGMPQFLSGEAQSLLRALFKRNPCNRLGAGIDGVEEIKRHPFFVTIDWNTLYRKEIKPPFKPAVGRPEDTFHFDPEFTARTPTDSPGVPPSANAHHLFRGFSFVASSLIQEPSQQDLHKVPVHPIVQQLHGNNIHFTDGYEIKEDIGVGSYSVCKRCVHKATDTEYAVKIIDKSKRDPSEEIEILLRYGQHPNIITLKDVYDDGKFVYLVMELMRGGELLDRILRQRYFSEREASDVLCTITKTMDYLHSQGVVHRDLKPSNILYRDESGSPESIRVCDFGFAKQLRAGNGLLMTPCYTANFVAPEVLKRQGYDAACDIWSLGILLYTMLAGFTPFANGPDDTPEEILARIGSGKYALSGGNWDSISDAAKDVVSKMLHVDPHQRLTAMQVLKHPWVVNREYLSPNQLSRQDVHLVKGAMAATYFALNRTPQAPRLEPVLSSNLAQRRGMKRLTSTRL
Sequence of SBK1 (Q52WX2 whole entry): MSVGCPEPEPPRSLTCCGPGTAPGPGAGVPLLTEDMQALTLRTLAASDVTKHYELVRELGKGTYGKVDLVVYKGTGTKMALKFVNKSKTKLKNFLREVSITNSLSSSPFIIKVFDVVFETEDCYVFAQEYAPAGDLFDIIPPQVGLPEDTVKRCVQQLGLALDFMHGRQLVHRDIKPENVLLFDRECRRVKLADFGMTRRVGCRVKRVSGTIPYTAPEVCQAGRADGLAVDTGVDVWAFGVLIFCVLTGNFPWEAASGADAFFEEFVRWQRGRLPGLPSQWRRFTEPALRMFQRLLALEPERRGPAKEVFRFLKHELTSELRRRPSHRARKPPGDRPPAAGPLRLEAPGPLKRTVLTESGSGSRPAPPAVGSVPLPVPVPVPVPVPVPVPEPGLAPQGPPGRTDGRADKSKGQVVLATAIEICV

COc1cc(-c2cncc(-c3ccc(N4CCN(C)CC4)cc3)c2C)cc(F)c1C(N)=O [Compound 26a, 2-Fluoro-6-methoxy-4-(4-methyl-5-(4-(4-methylpiperazin-1-yl)phenyl)pyridin-3-yl)benzamide]
% enzyme activity (AKT1): 102.39%
% enzyme activity (ARAF): 28.83%
% enzyme activity (IGF1R): 98.31%
% enzyme activity (P38a/MAPK14 [1]): 91.67%
% enzyme activity (RSK3): 87.93%
% enzyme activity (SBK1): 93.74%
% enzyme activity (ULK3): 91.23%
remaining activity at 1 µM (GRK3): 94.4%
remaining activity at 1 µM (LCK): 93.2%
remaining activity at 1 µM (MST4): 86.9%
remaining activity at 1 µM (P38a/MAPK14 [2]): 92.7%
remaining activity at 1 µM (ZAP70): 96.2%

COc1cc(-c2cncc(-c3ccc(N4C[C@@H](C)N(C)[C@@H](C)C4)cc3)c2C)cc(F)c1C(N)=O [Compound 26c, 2-Fluoro-6-methoxy-4-(4-methyl-5-(4-((3R,5S)-3,4,5-trimethylpiperazin-1-yl)phenyl)pyridin-3-yl)benzamide]
% enzyme activity (AKT1): 104.50%
% enzyme activity (ARAF): 43.32%
% enzyme activity (IGF1R): 94.80%
% enzyme activity (P38a/MAPK14 [1]): 96.02%
% enzyme activity (RSK3): 99.74%
% enzyme activity (SBK1): 101.08%
% enzyme activity (ULK3): 97.24%
remaining activity at 1 µM (GRK3): 96.1%
remaining activity at 1 µM (LCK): 101%
remaining activity at 1 µM (MST4): 95%
remaining activity at 1 µM (P38a/MAPK14 [2]): 97%
remaining activity at 1 µM (ZAP70): 98.7%
